Measurements as given in ChEMBL document CHEMBL3885881, “DrugMatrix”.

Organism: Rattus norvegicus
Assay: DrugMatrix - Regimen: Daily Repeat
Type: toxicity, organism-based, Sprague-Dawley
Parameters: regimen Daily Repeat, gender Male, age 6-8 weeks
Details: in vivo, po, route oral GAVAGE, vehicle 100 % WATER; for ABSOLUTE BASOPHIL / ABSOLUTE EOSINOPHIL / ABSOLUTE LYMPHOCYTE / ABSOLUTE MONOCYTE / ABSOLUTE SEGMENTED NEUTROPHIL / BASOPHIL / EOSINOPHIL / ERYTHROCYTE COUNT / HEMATOCRIT / HEMOGLOBIN / LEUKOCYTE COUNT / LYMPHOCYTE / MEAN CORPUSCULAR HEMOGLOBIN / MEAN CORPUSCULAR HEMOGLOBIN CONCENTRATION / MEAN CORPUSCULAR VOLUME / MONOCYTE / NEUTROPHIL / NUCLEATED RED BLOOD CELLS / PLATELET COUNT: tissue Blood; for ALANINE AMINOTRANSFERASE / ALBUMIN / ALKALINE PHOSPHATASE / ASPARTATE AMINOTRANSFERASE / BLOOD UREA NITROGEN / CARBON DIOXIDE / CHLORIDE / CHOLESTEROL / CREATINE PHOSPHOKINASE / CREATININE / GLUCOSE / LACTATE DEHYDROGENASE / LIPASE / PHOSPHORUS / POTASSIUM / SODIUM / TOTAL BILIRUBIN / TOTAL PROTEIN / URIC ACID: tissue Plasma
[1] = 100 mg/kg, 120 h, dose level Low, time 5 day
[2] = 852 mg/kg, 72 h, dose level High, time 3 day
[3] = 852 mg/kg, 120 h, dose level High, time 5 day

Question: `CC(C)(S)[C@@H](N)C(=O)O` [PENICILLAMINE] was tested. Which “ABSOLUTE BASOPHIL” value [1] did it give?
Answer: 0 CELLS/uL

Question: What about the “ABSOLUTE EOSINOPHIL” value [1] of the same compound?
Answer: 0 CELLS/uL

Question: What about the “ABSOLUTE LYMPHOCYTE” value [1] of the same compound?
Answer: 6617.67 CELLS/uL

Question: And the “ABSOLUTE MONOCYTE” value [1]?
Answer: 110.33 CELLS/uL

Question: And the “ABSOLUTE SEGMENTED NEUTROPHIL” value [1]?
Answer: 338.67 CELLS/uL

Question: What about the BASOPHIL [1] of the same compound?
Answer: 0%

Question: What about the EOSINOPHIL [1] of the same compound?
Answer: 0%

Question: What about the “ERYTHROCYTE COUNT” value [1] of the same compound?
Answer: 5.47 x10E6/uL

Question: What about the HEMATOCRIT [1] of the same compound?
Answer: 34.93%

Question: And the HEMOGLOBIN [1]?
Answer: 13.8 G/DL

Question: What about the “LEUKOCYTE COUNT” value [1] of the same compound?
Answer: 7.07 x10E3/uL

Question: What about the LYMPHOCYTE [1] of the same compound?
Answer: 93.33%

Question: And the “MEAN CORPUSCULAR HEMOGLOBIN” value [1]?
Answer: 25.27 pg

Question: What about the “MEAN CORPUSCULAR HEMOGLOBIN CONCENTRATION” value [1] of the same compound?
Answer: 39.57 G/DL

Question: What about the “MEAN CORPUSCULAR VOLUME” value [1] of the same compound?
Answer: 63.93 fL

Question: And the MONOCYTE [1]?
Answer: 1.67%

Question: What about the NEUTROPHIL [1] of the same compound?
Answer: 5%

Question: And the “NUCLEATED RED BLOOD CELLS” value [1]?
Answer: 0 /100WBC

Question: What about the “PLATELET COUNT” value [1] of the same compound?
Answer: 1075.33 x10E3/uL

Question: And the “ALANINE AMINOTRANSFERASE” value [1]?
Answer: 51.33 u/L

Question: What about the ALBUMIN [1] of the same compound?
Answer: 4.07 G/DL

Question: What about the “ALKALINE PHOSPHATASE” value [1] of the same compound?
Answer: 310.33 u/L

Question: And the “ASPARTATE AMINOTRANSFERASE” value [1]?
Answer: 74.33 u/L

Question: And the “BLOOD UREA NITROGEN” value [1]?
Answer: 13.67 mg/dL

Question: And the “CARBON DIOXIDE” value [1]?
Answer: 34 mmol/L

Question: What about the CHLORIDE [1] of the same compound?
Answer: 99.67 MEQ/L

Question: And the CHOLESTEROL [1]?
Answer: 68.67 mg/dL

Question: And the “CREATINE PHOSPHOKINASE” value [1]?
Answer: 197.67 u/L

Question: What about the CREATININE [1] of the same compound?
Answer: 0.13 mg/dL

Question: And the GLUCOSE [1]?
Answer: 152.67 mg/dL

Question: What about the “LACTATE DEHYDROGENASE” value [1] of the same compound?
Answer: 129 u/L

Question: What about the LIPASE [1] of the same compound?
Answer: 9.67 u/L

Question: And the PHOSPHORUS [1]?
Answer: 10.77 mg/dL

Question: What about the POTASSIUM [1] of the same compound?
Answer: 6.13 MEQ/L

Question: And the SODIUM [1]?
Answer: 144.33 MEQ/L

Question: What about the “TOTAL BILIRUBIN” value [1] of the same compound?
Answer: 0.17 mg/dL

Question: What about the “TOTAL PROTEIN” value [1] of the same compound?
Answer: 5.83 G/DL

Question: And the “URIC ACID” value [1]?
Answer: 1.17 mg/dL

Question: And the “ABSOLUTE BASOPHIL” value [2]?
Answer: 0 CELLS/uL

Question: And the “ABSOLUTE EOSINOPHIL” value [2]?
Answer: 0 CELLS/uL

Question: And the “ABSOLUTE LYMPHOCYTE” value [2]?
Answer: 6326 CELLS/uL

Question: And the “ABSOLUTE MONOCYTE” value [2]?
Answer: 89.33 CELLS/uL

Question: And the “ABSOLUTE SEGMENTED NEUTROPHIL” value [2]?
Answer: 351.33 CELLS/uL

Question: What about the BASOPHIL [2] of the same compound?
Answer: 0%

Question: And the EOSINOPHIL [2]?
Answer: 0%

Question: What about the “ERYTHROCYTE COUNT” value [2] of the same compound?
Answer: 5.64 x10E6/uL

Question: And the HEMATOCRIT [2]?
Answer: 34.8%

Question: And the HEMOGLOBIN [2]?
Answer: 13.1 G/DL

Question: And the “LEUKOCYTE COUNT” value [2]?
Answer: 6.77 x10E3/uL

Question: And the LYMPHOCYTE [2]?
Answer: 93.67%

Question: And the “MEAN CORPUSCULAR HEMOGLOBIN” value [2]?
Answer: 23.23 pg

Question: What about the “MEAN CORPUSCULAR HEMOGLOBIN CONCENTRATION” value [2] of the same compound?
Answer: 37.67 G/DL

Question: And the “MEAN CORPUSCULAR VOLUME” value [2]?
Answer: 61.73 fL

Question: What about the MONOCYTE [2] of the same compound?
Answer: 1.33%

Question: And the NEUTROPHIL [2]?
Answer: 5%

Question: What about the “NUCLEATED RED BLOOD CELLS” value [2] of the same compound?
Answer: 0 /100WBC

Question: And the “PLATELET COUNT” value [2]?
Answer: 1143.33 x10E3/uL

Question: What about the “ALANINE AMINOTRANSFERASE” value [2] of the same compound?
Answer: 54.33 u/L

Question: And the ALBUMIN [2]?
Answer: 4.2 G/DL

Question: And the “ALKALINE PHOSPHATASE” value [2]?
Answer: 349 u/L

Question: What about the “ASPARTATE AMINOTRANSFERASE” value [2] of the same compound?
Answer: 71.33 u/L

Question: What about the “BLOOD UREA NITROGEN” value [2] of the same compound?
Answer: 14 mg/dL

Question: What about the “CARBON DIOXIDE” value [2] of the same compound?
Answer: 30.33 mmol/L

Question: What about the CHLORIDE [2] of the same compound?
Answer: 102.67 MEQ/L

Question: What about the CHOLESTEROL [2] of the same compound?
Answer: 88.33 mg/dL

Question: What about the “CREATINE PHOSPHOKINASE” value [2] of the same compound?
Answer: 242 u/L

Question: What about the CREATININE [2] of the same compound?
Answer: 0.12 mg/dL

Question: What about the GLUCOSE [2] of the same compound?
Answer: 145.67 mg/dL

Question: And the “LACTATE DEHYDROGENASE” value [2]?
Answer: 117.67 u/L

Question: What about the LIPASE [2] of the same compound?
Answer: 10 u/L

Question: What about the PHOSPHORUS [2] of the same compound?
Answer: 9.27 mg/dL

Question: And the POTASSIUM [2]?
Answer: 5.88 MEQ/L

Question: What about the SODIUM [2] of the same compound?
Answer: 147.53 MEQ/L

Question: What about the “TOTAL BILIRUBIN” value [2] of the same compound?
Answer: 0.17 mg/dL

Question: And the “TOTAL PROTEIN” value [2]?
Answer: 6.2 G/DL

Question: What about the “URIC ACID” value [2] of the same compound?
Answer: 0.87 mg/dL

Question: What about the “ABSOLUTE BASOPHIL” value [3] of the same compound?
Answer: 0 CELLS/uL

Question: What about the “ABSOLUTE EOSINOPHIL” value [3] of the same compound?
Answer: 0 CELLS/uL

Question: What about the “ABSOLUTE LYMPHOCYTE” value [3] of the same compound?
Answer: 6605.67 CELLS/uL

Question: What about the “ABSOLUTE MONOCYTE” value [3] of the same compound?
Answer: 23.67 CELLS/uL

Question: And the “ABSOLUTE SEGMENTED NEUTROPHIL” value [3]?
Answer: 604 CELLS/uL

Question: What about the BASOPHIL [3] of the same compound?
Answer: 0%

Question: And the EOSINOPHIL [3]?
Answer: 0%

Question: And the “ERYTHROCYTE COUNT” value [3]?
Answer: 5.48 x10E6/uL

Question: What about the HEMATOCRIT [3] of the same compound?
Answer: 33.73%

Question: What about the HEMOGLOBIN [3] of the same compound?
Answer: 13.27 G/DL

Question: What about the “LEUKOCYTE COUNT” value [3] of the same compound?
Answer: 7.23 x10E3/uL

Question: What about the LYMPHOCYTE [3] of the same compound?
Answer: 91.33%

Question: What about the “MEAN CORPUSCULAR HEMOGLOBIN” value [3] of the same compound?
Answer: 24.23 pg

Question: What about the “MEAN CORPUSCULAR HEMOGLOBIN CONCENTRATION” value [3] of the same compound?
Answer: 39.33 G/DL

Question: What about the “MEAN CORPUSCULAR VOLUME” value [3] of the same compound?
Answer: 61.63 fL

Question: What about the MONOCYTE [3] of the same compound?
Answer: 0.33%

Question: And the NEUTROPHIL [3]?
Answer: 8.33%

Question: What about the “NUCLEATED RED BLOOD CELLS” value [3] of the same compound?
Answer: 0 /100WBC

Question: And the “PLATELET COUNT” value [3]?
Answer: 1213.67 x10E3/uL

Question: And the “ALANINE AMINOTRANSFERASE” value [3]?
Answer: 35 u/L

Question: And the ALBUMIN [3]?
Answer: 4.23 G/DL

Question: What about the “ALKALINE PHOSPHATASE” value [3] of the same compound?
Answer: 283.33 u/L

Question: And the “ASPARTATE AMINOTRANSFERASE” value [3]?
Answer: 59.33 u/L

Question: And the “BLOOD UREA NITROGEN” value [3]?
Answer: 13.33 mg/dL

Question: And the “CARBON DIOXIDE” value [3]?
Answer: 33.33 mmol/L

Question: What about the CHLORIDE [3] of the same compound?
Answer: 99.67 MEQ/L

Question: What about the CHOLESTEROL [3] of the same compound?
Answer: 61.33 mg/dL

Question: What about the “CREATINE PHOSPHOKINASE” value [3] of the same compound?
Answer: 202.33 u/L

Question: What about the CREATININE [3] of the same compound?
Answer: 0.12 mg/dL

Question: What about the GLUCOSE [3] of the same compound?
Answer: 131.67 mg/dL

Question: What about the “LACTATE DEHYDROGENASE” value [3] of the same compound?
Answer: 133 u/L

Question: And the LIPASE [3]?
Answer: 9.67 u/L

Question: What about the PHOSPHORUS [3] of the same compound?
Answer: 10.7 mg/dL

Question: And the POTASSIUM [3]?
Answer: 6.12 MEQ/L

Question: What about the SODIUM [3] of the same compound?
Answer: 144.2 MEQ/L

Question: And the “TOTAL BILIRUBIN” value [3]?
Answer: 0.2 mg/dL

Question: What about the “TOTAL PROTEIN” value [3] of the same compound?
Answer: 6.07 G/DL

Question: What about the “URIC ACID” value [3] of the same compound?
Answer: 1.23 mg/dL
